According to ChEMBL document CHEMBL1135043, “A neural network based virtual screening of cytochrome P450 3A4 inhibitors” (Bioorg Med Chem Lett, 2002):

Each compound was assayed against Cytochrome P450 3A4 (Homo sapiens, UniProt P08684) (assay: Inhibition of cytochrome P450 3A4).
Sequence of Cytochrome P450 3A4 (P08684 whole entry): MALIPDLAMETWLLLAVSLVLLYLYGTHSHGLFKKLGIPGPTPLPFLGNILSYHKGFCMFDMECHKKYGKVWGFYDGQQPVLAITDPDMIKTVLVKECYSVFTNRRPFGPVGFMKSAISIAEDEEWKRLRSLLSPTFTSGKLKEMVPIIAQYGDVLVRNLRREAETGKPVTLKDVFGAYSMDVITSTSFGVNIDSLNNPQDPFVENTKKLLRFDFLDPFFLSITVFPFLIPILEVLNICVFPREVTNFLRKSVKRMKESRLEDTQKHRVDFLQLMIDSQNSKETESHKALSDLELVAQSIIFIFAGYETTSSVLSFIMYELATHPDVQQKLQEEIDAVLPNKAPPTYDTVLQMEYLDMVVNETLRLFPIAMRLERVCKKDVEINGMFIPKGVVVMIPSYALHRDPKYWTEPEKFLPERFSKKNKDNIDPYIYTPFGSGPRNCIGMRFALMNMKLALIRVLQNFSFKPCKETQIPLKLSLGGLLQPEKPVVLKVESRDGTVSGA

Compound | Inhibitory index
CN1CCC(c2c[nH]c3ccc(NC(=O)c4ccc(F)cc4)cc23)CC1 | 0.8
COc1ccccc1CN(CC(Cc1c[nH]c2ccccc12)NC(=O)CN1CCC(N2CCCCC2)CC1)C(C)=O (configuration not stated) | 0.86
COCCCOc1ccnc(C[S+]([O-])c2nc3ccccc3[nH]2)c1C (configuration not stated) [RABEPRAZOLE] | 0.82
CC(C)(C)c1cc(CC2SCNC2=O)cc(C(C)(C)C)c1O (configuration not stated) [TAZOFELONE] | 0.39
CN1[C@@H]2CC[C@H]1C[C@@H](NC(=O)c1cc(Cl)cc3c1OC(C)(C)C3)C2 [ZATOSETRON] | 0.8

More lines, now with the values ahead:

Inhibitory index | Compound
0.88 | O[C@@H](COc1cccc2ncccc12)CN1CCN([C@@H]2c3ccccc3[C@@H]3[C@H](c4ccccc42)C3(F)F)CC1
0.88 | OC(COc1cccc2ncccc12)CN1CCN(C2c3ccccc3C3CC3c3ccccc32)CC1 (configuration not stated)
